Entries after “also recorded” stand apart in the source; their conditions may differ.

The subject of test [1] is senescent T cells from a patient with lymphoma. Kind of test: 10 day in vitro culture of senescent lymphoma patient T cells with anti-CD3/CD28 beads, flow cytometric analysis. It counts as cell-based, human. As to the method:
Monocytes were depleted from the T cell sample, as monocytes are known to inhibit T cell expansion in cultures containing anti-CD3/CD28 beads. The effect of a range of idelalisib concentrations were compared alone and in combination with 3 uM VIP peptide antagonist (VIPhyb) or 1 ug/ml mast cell chymase, an enzyme that degrades endogenous VIP on T cell activation, differentiation and proliferation. Numbers of viable T cells were measured during a 10 day in vitro cultures as well as the T cell differentiation and activation profiles, focusing on the relative numbers of T cells with a senescent phenotype in which co-stimulatory receptors CD27 and CD28 are both absent (CD27−CD28−), to an activated phenotype, in which either CD27, CD28, or both co-stimulatory receptors are present (CD27+CD28+).
Aliquots of frozen patient apheresis products or PBMC from ficolled whole blood were rapidly thawed and rested overnight in complete RPMI 1640 supplemented with 10% fetal bovine serum, 100 U/mL penicillin, 100 μg/mL streptomycin, and 50 μM 2-mercaptoethanol (complete media). The following day, red blood cells were removed from apheresis products by ficoll gradient. The leukocytes were then enriched for T cells using an EasySep human T cell enrichment kit according to manufacturer's instructions. Cells were plated in 200 μL of complete media in each well of a 96 well flat-bottom plate. Compounds were added at the indicated concentrations, and the DMSO concentration was normalized to 0.1% for all wells. Anti-CD3/CD28 beads were added at a 1:1 bead:cell ratio. On day 7 post-stimulation, cells from each treatment were transferred to new media. Fresh compounds and beads were then added, and the cells were cultured for an additional 3 days. On day 10 post-initial stimulation, the beads were removed, and the cells were stained for flow cytometric analysis.
Cells were washed twice in PBS. The cells were also stained using a fixable viability dye. Surface markers were then stained by adding fluorochrome-conjugated antibodies to CD3, CD4, CD8, CD27, CD28, CD45RA, CD45RO, PD-1, and CCR7. To assess proliferation, half the cells were evaluated for expression of Ki67. Ki67 staining was performed using a FoxP3 intracellular staining kit. Just prior to running samples, Accucheck™ counting beads were added to each tube. Samples were acquired on a BD FACS Aria, and analysis was performed using FlowJo™ software. Viable cells were used in the analysis. The absolute numbers of cells was calculated for each population according to instructions provided by the manufacturer of the Accucheck™ counting beads.
(In general: In flow cytometry, cells or beads pass a laser one at a time.)

In test [2] the test system is luciferase-expressing splenic T cells from B6 Luciferase mice. The experiment in a line: Bioluminescent MLR, B6 Luciferase splenic T cells with irradiated FVB splenic T cells (VIP, VIPhyb, VIPhyb-NP). The class given is cell-based, mouse. The source says:
Splenocytes were extracted from WT and VIP-KO mice treated with B16-F0 and B16-F10 melanoma, and analyzed with flow cytometry for Granzyme B (GrZ B) and CD8 expression. VIPhyb was conjugated to a biocompatible, non-toxic 30 nm NP through emulsion polymerization and tested for purity and stability. A mixed lymphocyte reaction (MLR) using luciferase-expressing splenic T cells from B6 Luciferase mice were co-cultured with irradiated splenic T cells from FVB mice. VIP, VIPhyb, and VIPhyb-NP at concentrations of 0 ug/mL to 975 ug/mL were added to the MLR on 3 consecutive days and their effect on T cell proliferation assessed with bioluminescent imaging.

In test [3] the test system is luciferase B6 splenic T cells. Kind of test: One-way mixed lymphocyte reaction (MLR), luciferase B6 splenic T cells with irradiated FVB splenocytes. It counts as cell-based, mouse. How it is done: Proliferation of luciferase B6 splenic T cells cultured for 3 days in MLR with irradiated FVB splenocytes, with daily addition of VIP and/or VIPhyb to achieve the concentrations shown (0-10 mmol/L).
To explore the role of VIP signaling in allo-immune responses, one-way mixed lymphocyte reactions (MLR) were performed containing VIP and/or the antagonistic VIPhyb peptide. Addition of VIP decreased Luciferase T-cell proliferation in a dose-dependent manner, while adding VIPhyb increased T-cell proliferation.

Another test has as its system E.G7-OVA cells. Kind of test: E.G7-OVA lymphoma model, adoptive transfer of T cells expanded with the compounds. It counts as in vivo, Mice. Particulars: OVA-expressing lymphoma model; T cells expanded 3 days with CD3/CD28 beads and IL-2, injected intravenously on day 7 of tumor growth. As to the method:
Mice were injected subcutaneously with 5×10^5 E.G7-OVA cells that were allowed to grow for 7 days until a palpable tumor formed. During this period, OT-I, OT-II, and B6 T cells were expanded with CD3/CD28 beads in the presence of IL-2 and the indicated compounds for 3 days. On day 7 of tumor growth, mice were injected intravenously with a combination of expanded OT-I, OT-II, and B6 T cells (2×10^6 OT-I, 1×10^6 OT-II, and 2×10^6 B6 cells) or 2×10^6 B6 T cells as a control. Mice were then monitored for tumor growth that was calculated as (L×W^2)/2. FIG. 5B is a tumor growth curve showing the rate of growth among groups over time. Expansion of mouse T cells in the presence of Idelalisib, VIPhyb, or a combination of both enhances their therapeutic efficacy in an OVA-expressing lymphoma model.

The next test has as its system DLBCL patient T cells. The experiment in a line: DLBCL patient T cell expansion for 14 days with CD3/CD28 beads and IL-2. The class given is cell-based, human.
Test [4] deals with effector/memory CD8+ T cells and mature NK cells. As to conditions: mouse leukemia models; cited from earlier work.
For a further test, the system named is PD-1 and PD-L1. Particulars: activated T cells and dendritic cells, respectively; cited from earlier work.
The subject of the next test is Bcl-2. The experiment in a line: Bcl-2 blot of protein lysates from patient T cell expansion cultures. As to conditions: lysates on days 7 and 14; actin loading control. It counts as cell-based, human. How it is done:
Protein lysates from patient T cell expansion cultures were prepared on days 7 and 14. Samples were run on an SDS-PAGE gel prior to transfer to a nitrocellulose membrane. The membrane was then probed for the pro-survival Bcl-2 protein, stripped, and then re-probed for actin as a loading control.

The test system of test [5] is T-cells from the anergic lymphoma patient. The experiment in a line: Culture of sorted lymphoma patient T-cells with anti-CD3/anti-CD28 beads (Ki67, PD-1 by flow cytometry). The class given is cell-based, human. From the text: Using high-speed cell sorting subsets of T-cells were isolated defined by their levels of CD27 and CD28 expression from the patient with relapsed lymphoma and a healthy control. CD3 positive T-cells with each of the four phenotypes defined by CD27 and CD28 expression were sorted and cultured in vitro in the presence of anti-CD^3/anti-CD28 beads. Total T-cells from healthy donors had 100% expression of the Ki67 proliferation marker following four days of culture. However, the corresponding total T-cell population from the patient with anergic T-cells following treatment for lymphoma had only 90% of T-cells expressing the Ki67 marker.
Following the daily addition of 3 uM VIPhyb to these cultures, the proportion of Ki67 positive T-cells from the anergic lymphoma patient was increased to 100%. […] In contrast, the T-cell subsets lacking expression of either CD27 or CD28 or both markers had impaired proliferated response when incubated with the anti-CD3/CD28 beads.
Addition of the antagonist VIPhyb augmented T-cell proliferation in the subsets lacking either CD27 or CD28.

As for “KPRRPYTDNYTRLRKQMAVKKYLNSILN [VIPhyb, peptide antagonist of VIP]”, in [1] (3 uM VIPhyb, control 55.2%), the “fraction of senescent T cells that lacked both CD27 and CD28” value came out at 35.7%. Further, the “numbers of effector memory T cells (Tem)” value in test [1] (10-day cultures) is on record as “increased”. Besides, in [1] (as single agent or in combination), the “in vitro expansion of senescent T cells” value is recorded as “significantly expanded”. Moreover, in [2] (T cell proliferation in MLR), the “concentration of peak efficacy” value came to 300 µg/mL. The “effect on inhibitory effects of VIP on T cell proliferation in vitro” value in test [2] (added on 3 consecutive days, 0 ug/mL to 975 ug/mL) was “counteracted the inhibitory effects of VIP”. The “T-cell proliferation in MLR” value in test [3] (3 days, daily addition of VIP and/or VIPhyb, 0-10 mmol/L [sic]) was “increased; also recorded: augmented”. Besides, the “effect on VIP suppression of T-cell proliferation” value in test [3] (VIP plus VIPhyb in MLR) is on record as “reversed the suppressive effect of VIP; also recorded: mitigated the inhibitory effect”. For the same sequence, the “therapeutic efficacy of mouse T cells expanded in presence of the compounds” value in the test on E.G7-OVA cells was “enhances”. Further, in the test with DLBCL patient T cells, the “frequency of CD27+CD28+ cells” value is given as “increases” and the “frequency of CD27−CD28− cells” value was “decreasing”. Moreover, the “number of effector/memory CD8+ T cells and mature NK cells” value in test [4] was “increases”. Besides, in the test with PD-1 and PD-L1, the “expression of PD-1 and PD-L1” value is reported as “down regulates”. The “expression of Bcl-2 in lymphoma patient T cells” value in the test on Bcl-2 is listed as “increased”. For the same sequence, the “levels of PD-1 expression” value in test [5] (3 uM VIPhyb, flow cytometry, compared with control cultures without VIP antagonist) was “decreased”. Also, in test [5] (addition of VIPhyb, anti-CD3/CD28 beads), the “T-cell proliferation in the subsets lacking either CD27 or CD28” value was “augmented”. In addition, in test [5] (daily addition of 3 uM VIPhyb, total T-cells of anergic lymphoma patient, anti-CD3/anti-CD28 beads, four days of culture, 90% without VIPhyb), the “proportion of Ki67 positive T-cells” value worked out at 100%.
